The values below come from patent US9012446B2, “Amino-oxazines and amino-dihydrothiazine compounds as beta-secretase modulators and methods of use” (Amgen Inc., priority 2010, dated 2015).

One experiment has as its target BACE (Homo sapiens, UniProt P56817). In words: In vitro enzymatic BACE FRET assay. In kind it is biochemical. Particulars: average IC50, enzyme assay; read-out: BACE 1 FRET assay. An outline of the steps: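 BACE (0.2 nM) preincubated 1 h with serially diluted inhibitors in 0.05 M acetate pH 4.2, 10% DMSO, 100 uM genapol. FRET peptide substrate (50 nM) added, 1 h incubation, then stopped with Tris to neutral pH. Fluorescence from cleavage read at […].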

For the next experiment, the system named is Aβ40. Kind of experiment: In vitro BACE cell-based assay (Aβ40 sandwich ELISA, cells stably expressing APP). The following applies: Homo sapiens, HEK293, average IC50; read-out: HEK cell assay. An outline of the steps:
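APP-stably-expressing cells, grown 24 h in DMEM/10% FBS, received 10-point compound doses starting at 100 μM or 10 μM (0.1% DMSO final). Secreted Aβ40 in supernatants measured by sandwich ELISA with time-resolved europium fluorescence; IC50 from percent inhibition versus concentration.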
For orientation: An ELISA detects its analyte on a solid surface through an enzyme-linked reagent.

A further experiment has as its system Abeta 40. Kind of experiment: In vivo inhibition of beta-secretase: Abeta 40 reduction in CSF and brain of the rat. Particulars: after 4 hrs; for inhibition in vivo at 10 mg/kg: 10 mpk; for % reduction of rat CSF levels / % reduction of rat brain levels: at 30 mpk. An outline of the steps: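 Male Sprague Dawley rats (200 g) were given test compound by oral gavage in 2% HPMC, 1% Tween80, pH 2.2, while a vehicle-only group served as control. After sacrifice, brains were homogenized in 0.2% DEA/50 mM NaCl or 0.5% TritonX-100 in Tris-buffered saline and centrifuged at 355,000 g, 4° C. for 30 minutes. Abeta40 in CSF and brain supernatants was quantified by ECL sandwich ELISA (biotinylated-4G8 capture, Fab40 detection) as percent reduction versus vehicle.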

The mark [1] stands for this setting: Abeta 40, rat CSF, read-out: % reduction of rat CSF levels at 10 pmk.
Where [2] appears, read: Abeta 40, rat brain, read-out: % reduction of rat brain levels at 10 mpk.

Like-named read-outs stand apart in the source and are kept apart here.

Chain of BACE (P56817 46-501, species assumed): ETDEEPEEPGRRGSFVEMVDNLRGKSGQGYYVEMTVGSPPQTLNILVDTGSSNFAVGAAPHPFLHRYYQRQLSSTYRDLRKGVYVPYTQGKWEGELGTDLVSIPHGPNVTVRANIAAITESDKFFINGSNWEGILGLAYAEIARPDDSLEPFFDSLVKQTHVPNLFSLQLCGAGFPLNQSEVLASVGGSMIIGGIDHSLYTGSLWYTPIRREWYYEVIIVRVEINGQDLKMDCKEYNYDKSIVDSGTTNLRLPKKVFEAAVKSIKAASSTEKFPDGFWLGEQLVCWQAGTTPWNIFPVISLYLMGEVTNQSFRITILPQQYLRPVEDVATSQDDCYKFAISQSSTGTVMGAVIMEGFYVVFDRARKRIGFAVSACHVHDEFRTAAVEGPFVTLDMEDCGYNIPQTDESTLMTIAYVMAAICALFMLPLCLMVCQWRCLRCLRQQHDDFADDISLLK

`NC1=N[C@@]2(CCO1)c1cc(-c3cccnc3F)ccc1Oc1c(F)cc(N3CCOCC3)cc12` [Example 184, (S)-4′-fluoro-7′-(2-fluoropyridin-3-yl)-2′-morpholino-5,6-dihydrospiro[[1,3]oxazine-4,9′-xanthen]-2-amine]: the IC50 amounted to 4.8 nM at BACE and 6.9 nM in the experiment on Aβ40. In addition, the inhibition in vivo at 10 mg/kg worked out at 19% with Abeta 40 (setting [1]) and 12% in the experiment on Abeta 40 (setting [2]).
On to `NC1=N[C@@]2(CCO1)c1cc(-c3cccnc3F)ccc1Oc1c(F)cc(N3CCC(F)(F)CC3)cc12` [Example 185, (4S)-2′-(4,4-difluoro-1-piperidinyl)-4′-fluoro-7′-(2-fluoro-3-pyridinyl)-5,6-dihydrospiro[1,3-oxazine-4,9′-xanthen]-2-amine], for which the IC50 is 4.4 nM at BACE and 9.6 nM in the experiment with Aβ40. The “% reduction of rat CSF levels” value with Abeta 40 (Abeta 40, rat CSF) stood at 53% at 30 mpk. For the same compound, in the experiment on Abeta 40 (Abeta 40, rat brain), the “% reduction of rat brain levels” value stood at 26% at 30 mpk.
Regarding `NC1=N[C@@]2(CCS1)c1cc(-c3cccnc3F)ccc1Oc1c(F)cc(C3=CCCOC3)cc12` [Example 201, (S)-2′-(5,6-dihydro-2H-pyran-3-yl)-4′-fluoro-7′-(2-fluoropyridin-3-yl)-5,6-dihydrospiro[[1,3]thiazine-4,9′-xanthen]-2-amine], the IC50 on BACE was determined as 1.4 nM; in the experiment on Aβ40, 9.7 nM. In addition, in the experiment on Abeta 40 (Abeta 40, rat CSF), the “% reduction of rat CSF levels” value is on record as 80% at 30 mpk. For the same compound, the “% reduction of rat brain levels” value with Abeta 40 (Abeta 40, rat brain) is 65% at 30 mpk.
`NC1=N[C@@]2(COC1)c1cc(-c3cc(F)ccc3F)ccc1Oc1ncc(-c3ccnc(F)c3)cc12` [Example 220, (S)-7-(2,5-difluorophenyl)-3-(2-fluoropyridin-4-yl)-2′,6′-dihydrospiro[chromeno[2,3-b]pyridine-5,3′-[1,4]oxazin]-5′-amine]: the IC50 on BACE turned out to be 2 nM; in the experiment on Aβ40 it was 4.4 nM. Further, the inhibition in vivo at 10 mg/kg in the experiment with Abeta 40 (setting [1]) came out at 38%; in the experiment on Abeta 40 (setting [2]) it was 2%.
Turning to `NC1=N[C@@]2(CCO1)c1cc(-c3cncc(F)c3)ccc1Oc1c2cc(-c2ccnc(F)c2)nc1F` [Example 226, (S)-1-fluoro-7-(5-fluoropyridin-3-yl)-3-(2-fluoropyridin-4-yl)-5′,6′-dihydrospiro[chromeno[2,3-c]pyridine-5,4′-[1,3]oxazin]-2′-amine], the IC50 is 1.4 nM on BACE and 1.6 nM in the experiment with Aβ40. For the same compound, the inhibition in vivo at 10 mg/kg came to 83% with Abeta 40 (setting [1]) and 74% in the experiment on Abeta 40 (setting [2]).
As for `NC1=N[C@@]2(CCO1)c1cc(-c3cccnc3)ccc1Oc1c2cc(-c2ccnc(F)c2)nc1F` [Example 239, (S)-1-fluoro-3-(2-fluoropyridin-4-yl)-7-(pyridin-3-yl)-5′,6′-dihydrospiro[chromeno[2,3-c]pyridine-5,4′-[1,3]oxazin]-2′-amine], the IC50 worked out at 35 nM at BACE and 16.1 nM with Aβ40. Also, the inhibition in vivo at 10 mg/kg turned out to be 68% in the experiment with Abeta 40 (setting [1]) and 48% in the experiment with Abeta 40 (setting [2]).
For `Cc1cc(-c2cc3c(c(F)n2)Oc2ccc(-c4cccnc4F)cc2[C@@]32COCC(N)=N2)ccn1` [Example 248, (S)-1-fluoro-7-(2-fluoropyridin-3-yl)-3-(2-methylpyridin-4-yl)-2′,6′-dihydrospiro[chromeno[2,3-c]pyridine-5,3′-[1,4]oxazin]-5′-amine], in that order: 0.6 nM, 0.7 nM, 53% and 39%.
Take `NC1=N[C@@]2(COC1)c1cc(-c3cccnc3F)ccc1Oc1c2cc(C2=CCCOC2)nc1F` [Example 249, (S)-3-(5,6-dihydro-2H-pyran-3-yl)-1-fluoro-7-(2-fluoropyridin-3-yl)-2′,6′-dihydrospiro[chromeno[2,3-c]pyridine-5,3′-[1,4]oxazin]-5′-amine]: the IC50 on BACE and in the experiment with Aβ40 was 0.4 nM in each case. The results for the inhibition in vivo at 10 mg/kg in the experiment with Abeta 40 (setting [1]) and in the experiment with Abeta 40 (setting [2]) were 72% and 59%, respectively.
